Test results from BindingDB's records for doi:10.1021/jm990200p (Synaptic Pharmaceutical, 1999).
pKi: −log10 of the molar value.

Experiment: In vitro binding affinity against Alpha-1A adrenergic receptor in isolated prostate tissue of dog

In the case of `CCC1=C(C(N)=O)C(c2ccc(F)c(F)c2)N(C(=O)NCCCN2CCC(C(=O)OC)(c3ccccc3)CC2)C(=O)N1` (stereo unspecified) [1-(3-{[5-Carbamoyl-6-(3,4-difluoro-phenyl)-4-ethyl-2-oxo-3,6-dihydro-2H-pyrimidine-1-carbonyl]-amino}-propyl)-4-phenyl-piperidine-4-carboxylic acid methyl ester], the pKi was 8.89.
